Results on 15 molecules are retold here after patent publication US5852018A, “Pharmaceutical piperazine compounds” (Xenova Limited, priority 1994, dated 1998).

Values joined by “and” are separate entries in the source; they are usually repeats but may differ in a detail not shown here. Equal entries are not always repeated.

Data set [1] concerns AR 1.0 cells. Nature of the data set: Proliferation assay with and without fixed concentration of doxorubicin (sulphorhodamine B). In kind it is cell-based, mouse. To be noted: four days. The text has this:
Compounds of formula A were examined for their ability to potentiate the toxicity of doxorubicin in AR 1.0 cells.

Data set [2] concerns AR 1.0 cells. Description: Potentiation of doxorubicin toxicity (potentiation index) in AR 1.0 cells. It is filed as cell-based, mouse. The conditions noted are these: four days.
Data set [3] relates to AR 1.0 cells. Description: Drug accumulation assay (tritiated daunorubicin) in MDR resistant AR 1.0 cells. The conditions noted are these: Mus musculus, DNR 2 μM; for IC50: 37° C., 1 hr; for Emax: 1 h, 100% = accumulation with 100 μM Verapamil, read-out: MAX accumulation (% 100 μm VRP). In kind it is cell-based. As for the experimental part:
The EMT6 mouse mammary carcinoma cell line and the MDR resistant subline AR 1.0 were cultured in RPMI 1640 medium containing 10% foetal calf serum and 2 mM glutamine at 37° C. in 5% CO2 . Cells were passaged between 1 in 200 and 1 in 2000 in the case of the parental cell line and between 1 in 20 and 1 in 200 in the case of the MDR resistant subline, after trypsinisation (0.25% trypsin, 0.2 gl^-1, EDTA).
AR 1.0 cells were seeded into 96 well opaque culture plates (Canberra Packard). The assay medium contained a mixture of tritiated Daunorubicin (DNR), a cytotoxic agent, and unlabelled DNR (0.25μ Ci/ml; 2 μM). Compounds of formula A were serially diluted in assay medium over a range of concentrations from 100 nM to 100 μM. The cells were incubated at 37° C. for 1 hr before washing and counting of cell associated radioactivity. Each assay included a titration of the known resistance modifying agent Verapamil as positive control. Results were expressed as % maximum accumulation where 100% accumulation is that observed in the presence of 100 μM Verapamil.

For another data set, the system named is MDR cells. To be noted: in vitro and in vivo; Cancer Res., 41, 1967-1972 (1981); cited from earlier work.
The mark [4] stands for this setting: Mus musculus, 96 h, compound alone, read-out: COMPOUND TOXICITY (IC50).
Where [5] appears, read: cytotoxic agent 1.00 μg/ml, 5760 min, read-out: TOXICITY WITH CYTOTOXIC AGENT (IC 50).
[6] abbreviates: cytotoxic agent 0.50 μg/ml, 5760 min, read-out: TOXICITY WITH CYTOTOXIC AGENT (IC 50).

With `COc1ccc(/C=c2/c(=O)[nH]/c(=C\c3ccccc3)c(=O)n2CC2CC2)cc1` [Compound 1454, (3Z,6Z)-3-Benzylidene-1-cyclopropylmethyl-6-(4-methoxybenzylidene)-2,5-piperazinedione], the IC50 is 5 µM with AR 1.0 cells [1] (setting [4]) and 10 µM with AR 1.0 cells [3]. In addition, the “Potentiation Index” value in the data set with AR 1.0 cells [2] (Conc Comp 5 μM) came to 10.

On to `COC(=O)Cn1c(=O)/c(=C/c2ccc(OC)cc2)[nH]c(=O)/c1=C/c1ccccc1` [Compound 1490, Methyl (3Z,6Z)-6-benzylidene-3-(4-methoxybenzylidene)-2,5-dioxo-1-piperazinylacetate], for which the IC50 in the data set on AR 1.0 cells [1] (setting [4]) amounted to 30 µM; in the data set on AR 1.0 cells [1] (setting [5]), 2 µM; with AR 1.0 cells [3], 30 µM. Besides, in the data set on AR 1.0 cells [3], the Emax was determined as 63.6%.

As to `COc1ccc(/C=c2\[nH]c(=O)/c(=C/c3ccccc3)n(CC3CC3)c2=O)cc1` [Compound 1500], the IC50 in the data set on AR 1.0 cells [1] (setting [4]) stood at 20 µM. In addition, the “Potentiation Index” value in the data set with AR 1.0 cells [2] (Conc Comp 3 μM) amounted to 10. In the data set with AR 1.0 cells [3], the Emax was 91.3% and the IC50 came to 15 µM.

`COc1ccc(/C=c2/c(=O)[nH]/c(=C\c3ccccc3)c(=O)n2CC(=O)N2CCCC2)cc1` [Compound 1521, N,N-Tetramethylene-(3Z,6Z)-3-benzylidene-6-(4-methoxybenzylidene)-2,5-dioxo-1-piperazinylacetamide]: the IC50 in the data set on AR 1.0 cells [1] (setting [4]) is 70 µM. In the data set on AR 1.0 cells [3], the Emax turned out to be 65.2% and the IC50 worked out at 30 µM.

On to `CCN(CC)C(=O)Cn1c(=O)/c(=C/c2ccc(OC)cc2)[nH]c(=O)/c1=C/c1ccccc1` [Compound 1527, N,N-Diethyl-(3Z,6Z)-6-benzylidene-3-(4-methoxybenzylidene)-2,5-dioxo-1-piperazinylacetamide], for which the results for the IC50 in the data set with AR 1.0 cells [1] (setting [4]), in the data set with AR 1.0 cells [1] (setting [5]) and with AR 1.0 cells [3] were 40 µM, 1.5 µM and 40 µM, respectively. In addition, the Emax in the data set with AR 1.0 cells [3] stood at 73.9%.

Consider `Cn1c(=O)/c(=C/c2ccccc2)n(Cc2ccccc2)c(=O)/c1=C/c1ccccc1` [Compound 1779, (3Z,6Z)-1-Benzyl-3,6-dibenzylidene-4-methyl-2,5-piperazinedione], for which the IC50 turned out to be 15 µM in the data set on AR 1.0 cells [1] (setting [4]), 0.8 µM in the data set on AR 1.0 cells [1] (setting [5]) and 15 µM in the data set on AR 1.0 cells [3]. Also, the “Potentiation Index” value in the data set on AR 1.0 cells [2] (Conc Comp 5 μM) is 40.

Consider `CC(=O)OCCn1c(=O)/c(=C/c2ccccc2)n(C)c(=O)/c1=C/c1ccccc1` [Compound 1817, (3Z,6Z)-1-(2-Acetoxyethyl)-3,6-dibenzylidene-4-methyl-2,5-piperazinedione], for which the figures for the IC50 in the data set on AR 1.0 cells [1] (setting [4]), in the data set with AR 1.0 cells [1] (setting [6]) and in the data set on AR 1.0 cells [3] were 20 µM, 1.5 µM and 20 µM, respectively.

As for `CC(=O)OCCOc1n/c(=C\c2ccccc2)c(=O)n(C)/c1=C\c1ccccc1` [Compound 1818, (3Z,6Z)-5-(2-Acetoxyethoxy)-3,6-dibenzylidene-1-methyl-3,6-dihydro-2-pyrazinone], the IC50 was 1.5 µM with AR 1.0 cells [1] (setting [4]), 0.8 µM in the data set with AR 1.0 cells [1] (setting [6]) and 7 µM with AR 1.0 cells [3].

In the case of `Cn1c(=O)/c(=C/c2ccccc2)nc(OCC2OCCO2)/c1=C/c1ccccc1` [Compound 1822, (3Z,6Z)-3,6-Dibenzylidene-1-methyl-2-oxo-1,2,3,6-tetrahydro-5-pyrazinyloxyacetaldehyde ethylene acetal], the figures for the IC50 with AR 1.0 cells [1] (setting [4]) and with AR 1.0 cells [3] were 5 µM and 9 µM, respectively.

`Cn1c(=O)/c(=C/c2ccccc2)n(CC2OCCO2)c(=O)/c1=C/c1ccccc1` [Compound 1823, (3Z,6Z)-3,6-Dibenzylidene-4-methyl-2,5-dioxo-1-piperazinylacetaldehydeethylene acetal]: the figures for the IC50 with AR 1.0 cells [1] (setting [4]), with AR 1.0 cells [1] (setting [6]) and in the data set with AR 1.0 cells [3] were 30 µM, 0.7 µM and 9 µM, respectively. Moreover, the “Potentiation Index” value with AR 1.0 cells [2] (Conc Comp 3 μM) amounted to 20.

For `Cn1c(=O)/c(=C/c2ccccc2)nc(OCCCN2C(=O)c3ccccc3C2=O)/c1=C/c1ccccc1` [Compound 1824, (3Z,6Z)-3,6-Dibenzylidene-1-methyl-5-(3-phthalimidopropoxy)-3,6-dihydro-2-pyrazinone], the figures for the IC50 with AR 1.0 cells [1] (setting [4]) and with AR 1.0 cells [3] were 7 µM and 3 µM, respectively. For the same molecule, the “Potentiation Index” value with AR 1.0 cells [2] (Conc Comp 3 μM) is 60 and 80.

Consider `C=CCn1c(=O)/c(=C/c2ccccc2)n(C)c(=O)/c1=C/c1ccccc1` [Compound 1825, (3Z,6Z)-1-Allyl-3,6-dibenzylidene-4-methyl-2,5-piperazinedione], for which the IC50 in the data set on AR 1.0 cells [1] (setting [4]) amounted to 20 µM; in the data set with AR 1.0 cells [1] (setting [6]), 1.5 µM; in the data set with AR 1.0 cells [3], 10 µM. Besides, in the data set on AR 1.0 cells [2] (Conc Comp 3 μM), the “Potentiation Index” value amounted to 15.

Regarding `COc1ccc(/C=c2/c(=O)n(CC3CC3)/c(=C\c3ccccc3)c(=O)n2C)cc1` [Compound 1833], the values for the IC50 in the data set with AR 1.0 cells [1] (setting [4]), with AR 1.0 cells [1] (setting [6]) and in the data set on AR 1.0 cells [3] were 9 µM, 1 µM and 12 µM, respectively. Also, the “Potentiation Index” value with AR 1.0 cells [2] (Conc Comp 3 μM) stood at 20.

With `CCCCCOc1n/c(=C\c2ccccc2)c(=O)n(C)/c1=C\c1ccccc1` [Compound 1855], the IC50 in the data set with AR 1.0 cells [1] (setting [4]) stood at 6 µM; with AR 1.0 cells [1] (setting [6]), 0.8 µM; in the data set with AR 1.0 cells [3] it was 10 µM.

Consider `COc1ccc(CCN(C)CCCC(C#N)(c2ccc(OC)c(OC)c2)C(C)C)cc1OC` (stereo not shown) [Verapamil], for which, in the data set with MDR cells, the “sensitisation of MDR cells to Vinca alkaloids” value is “sensitise MDR cells to Vinca alkaloids in vitro and in vivo”.
